Assay results from patent publication US20110294766A1, “16 Alpha, 17 Alpha-Acetal Glucocorticosteroidal Derivatives and their Use” (AstraZeneca AB, priority 2008, published 2011).

Molecular target: T1, recombinant human GR (Homo sapiens, UniProt P04150)
T1 construct: purchased Panvera/Invitrogen P2812 (kit P2893)
T1 sequence (P04150 1-777): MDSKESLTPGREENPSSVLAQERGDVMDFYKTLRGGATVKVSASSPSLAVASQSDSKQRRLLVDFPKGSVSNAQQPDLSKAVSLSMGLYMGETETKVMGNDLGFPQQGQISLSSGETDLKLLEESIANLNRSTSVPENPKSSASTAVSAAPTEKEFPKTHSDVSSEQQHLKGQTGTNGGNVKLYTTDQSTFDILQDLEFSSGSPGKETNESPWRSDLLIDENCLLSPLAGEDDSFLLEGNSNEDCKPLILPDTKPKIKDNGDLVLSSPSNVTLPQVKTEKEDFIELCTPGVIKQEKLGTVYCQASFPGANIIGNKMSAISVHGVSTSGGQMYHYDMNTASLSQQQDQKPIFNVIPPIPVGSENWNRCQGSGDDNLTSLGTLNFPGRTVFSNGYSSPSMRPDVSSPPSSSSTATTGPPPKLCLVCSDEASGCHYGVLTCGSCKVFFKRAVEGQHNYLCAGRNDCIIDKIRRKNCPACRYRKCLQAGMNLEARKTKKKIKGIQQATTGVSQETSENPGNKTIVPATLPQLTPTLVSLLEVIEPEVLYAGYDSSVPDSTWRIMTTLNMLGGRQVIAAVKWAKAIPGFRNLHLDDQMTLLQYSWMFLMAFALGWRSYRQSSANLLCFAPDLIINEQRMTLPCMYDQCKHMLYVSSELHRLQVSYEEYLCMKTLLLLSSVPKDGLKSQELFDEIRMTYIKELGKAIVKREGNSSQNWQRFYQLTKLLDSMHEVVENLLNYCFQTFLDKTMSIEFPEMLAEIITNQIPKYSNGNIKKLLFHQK
Assay: Human Glucocorticoid Receptor (GR) Assay (fluorescence polarization, Panvera/Invitrogen kit)
Details: GS Red tracer, 2 hours at room temperature, 100% control 10 μM Dexamethasone, read-out: Inhibition of GR binding, IC50
Procedure, shortened: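 Fluorescence polarization competition binding of compounds against Fluoromone GS Red tracer on recombinant human GR, in buffer of potassium phosphate, sodium molybdate, EDTA, DMSO with stabilizing peptide and DTT. Incubated 2 h at room temperature in the dark; read at ex 530/em 590 nm. Controls: DMSO (0%), 10 μM dexamethasone (100%).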

Structure (SMILES) | IC50 [nM]
C[C@]12C=CC(=O)C=C1[C@@H](F)C[C@H]1[C@@H]3C[C@H]4OC(c5cccc(F)c5)O[C@@]4(C(=O)SCC#N)[C@@]3(C)C[C@H](O)[C@@]12F (stereo partly drawn) [Example 23, S-(Cyanomethyl)(4aS,4bR,5S,6aS,6bS,9aR,10aS,10bS,12S)-4b,12-difluoro-8-(3-fluorophenyl)-5-hydroxy-4a,6a-dimethyl-2-oxo-2,4a,4b,5,6,6a,9a,10,10a,10b,11,12-dodecahydro-6bH-naphtho[2′,1′:4,5]indeno[1,2-d][1,3]dioxole-6b-carbothioate] | 0.99
C[C@]12C=CC(=O)C=C1[C@@H](F)C[C@H]1[C@@H]3C[C@H]4OC(c5cccs5)O[C@@]4(C(=O)SCF)[C@@]3(C)C[C@H](O)[C@@]12F (stereo partly drawn) [Example 15, S-(Fluoromethyl)(4aS,4bR,5S,6aS,6bS,9aR,10aS,10bS,12S)-4b,12-difluoro-5-hydroxy-4a,6a-dimethyl-2-oxo-8-(2-thienyl)-2,4a,4b,5,6,6a,9a,10,10a,10b,11,12-dodecahydro-6bH-naphtho[2′,1′:4,5]indeno[1,2-d][1,3]dioxole-6b-carbothioate] | 1
